This note sets out measurements from ChEMBL document CHEMBL4376837, “New Dual Small Molecules for Alzheimer's Disease Therapy Combining Histamine H3 Receptor (H3R) Antagonism and Calcium Channels Blockade with Additional Cholinesterase Inhibition” (J Med Chem, 2019).

pIC50, pKi: −log10 of the molar value. Active and inactive are the calls of the source. The calls are words filed in the database; no cut-off is given here.

The target in data set [1] is Voltage-gated L-type calcium channel (Homo sapiens, UniProt Q13936+Q13698+Q01668+O60840). The data set is described as follows: Inhibition of voltage-dependent L-type calcium channel in 70 mM K+-induced human SH-SY5Y cells assessed as blocking of depolarization-induced Ca2+ uptake by Fluo-4/AM dye based fluorescence microplate reader assay. The format is cell-based.

Data set [2] is described as follows: Inhibition of human recombinant AChE using acetylthiocholine iodide substrate by Ellman's protocol based assay. (Ellman's reagent forms a yellow product with free thiols.)
The target in a further data set is Histamine H3 receptor (Homo sapiens, UniProt Q9Y5N1). As to the kind of experiment: Displacement of [3H]-N-alpha-methylhistamine from human H3 receptor expressed in HEK293 cell membranes incubated for 60 mins by scintillation counting method. Further details: concentration or dose not given beside the values.
Data set [3] is described as follows: Antioxidant activity assessed as Trolox equivalents incubated for 15 mins by fluorescein based ORAC-FL assay. The format is functional.
Data set [4] has as its system Aorta. The data set is described as follows: Vasodilating activity in Wistar rat endothelium-denuded aortic rings preconstricted with 100 mM KCl assessed as vasorelaxation at 10 nM relative to control. Further details: scale not given: the % may be the effect or the level left. To be noted: 0.01 µM.
In data set [5] the test system is Aorta. As to the kind of experiment: Vasodilating activity in Wistar rat endothelium-denuded aortic rings preconstricted with 100 mM KCl assessed as vasorelaxation at 0.1 nM relative to control. To be noted: 0.0001 µM. Further details: scale not given: the % may be the effect or the level left.
Data set [6] relates to Aorta. The data set is described as follows: Vasodilating activity in Wistar rat endothelium-denuded aortic rings preconstricted with 100 mM KCl assessed as vasorelaxation at 1 nM relative to control. Also noted: scale not given: the % may be the effect or the level left. To be noted: 0.001 µM.
For data set [7], the system named is Mus musculus. The data set is described as follows: Neuroprotective activity in mouse model of LPS-induced induced memory impairment assessed as improvement in discrimination index at 1 mg/kg, ip by novel object recognition test. Format: functional, organism-based.
For another data set, the target named is Cholinesterase (Homo sapiens, UniProt P06276). The data set is described as follows: Inhibition of BuChE in human plasma using butyrylthiocholine iodide substrate by Ellman's protocol based assay. The format is cell-free.
Data set [8] has as its system Mus musculus. As to the kind of experiment: Neuroprotective activity in mouse model of LPS-induced induced memory impairment assessed as improvement in discrimination index at 10 mg/kg, ip by novel object recognition test. The format is functional, organism-based.
In data set [9] the target is Histamine H1 receptor (Homo sapiens) (UniProt P35367). The data set is described as follows: Displacement of [3H]-Pyrilamine from human H1 receptor expressed in CHO-K1 cell membranes incubated for 60 mins by scintillation counting method. A general note: In a radioligand displacement assay an active substance lowers the binding of a labelled ligand.
The target in another data set is Histamine H4 receptor (Homo sapiens, UniProt Q9H3N8). As to the kind of experiment: Antagonist activity at human H4 receptor expressed in CHO-K1 cells co-expressing G protein alpha16 assessed as inhibition of histamine-induced calcium mobilization incubated for 16 hrs by aequorin-based functional assay. Format: cell-based.
For data set [10], the system named is SH-SY5Y. The data set is described as follows: Neuroprotective activity against okadaic acid-induced cytotoxicity in human SH-SY5Y cells assessed as protection against cell death at 0.1 uM incubated for 24 hrs by MTT assay relative to control. The format is functional. A general note: Tetrazolium dyes change colour on reduction, which living cells bring about.

Data set [11] relates to SH-SY5Y. The data set is described as follows: Neuroprotective activity against Rotenone/Oligomycin A-induced cytotoxicity in human SH-SY5Y cells assessed as protection against cell death at 0.1 uM incubated for 24 hrs by MTT assay relative to control. The format is functional.
Data set [12] has as its system SH-SY5Y. The data set is described as follows: Neuroprotective activity against Rotenone/Oligomycin A-induced cytotoxicity in human SH-SY5Y cells assessed as protection against cell death at 3 uM incubated for 24 hrs by MTT assay relative to control. Format: functional.
Data set [13] has as its system SH-SY5Y. The data set is described as follows: Neuroprotective activity against okadaic acid-induced cytotoxicity in human SH-SY5Y cells assessed as protection against cell death at 3 uM incubated for 24 hrs by MTT assay relative to control. Format: functional.
Data set [14] relates to SH-SY5Y. As to the kind of experiment: Neuroprotective activity against Rotenone/Oligomycin A-induced cytotoxicity in human SH-SY5Y cells assessed as protection against cell death at 1 uM incubated for 24 hrs by MTT assay relative to control. Format: functional.
The test system of data set [15] is SH-SY5Y. As to the kind of experiment: Neuroprotective activity against Rotenone/Oligomycin A-induced cytotoxicity in human SH-SY5Y cells assessed as protection against cell death at 0.3 uM incubated for 24 hrs by MTT assay relative to control. The format is functional.
The test system of data set [16] is SH-SY5Y. As to the kind of experiment: Neuroprotective activity against okadaic acid-induced cytotoxicity in human SH-SY5Y cells assessed as protection against cell death at 0.3 uM incubated for 24 hrs by MTT assay relative to control. The format is functional.
Data set [17] relates to SH-SY5Y. The data set is described as follows: Neuroprotective activity against okadaic acid-induced cytotoxicity in human SH-SY5Y cells assessed as protection against cell death at 1 uM incubated for 24 hrs by MTT assay relative to control. Format: functional.
Data set [18] in a line: Permeability at 100 uM by PAMPA method.

Sequence of Cholinesterase (P06276 whole entry): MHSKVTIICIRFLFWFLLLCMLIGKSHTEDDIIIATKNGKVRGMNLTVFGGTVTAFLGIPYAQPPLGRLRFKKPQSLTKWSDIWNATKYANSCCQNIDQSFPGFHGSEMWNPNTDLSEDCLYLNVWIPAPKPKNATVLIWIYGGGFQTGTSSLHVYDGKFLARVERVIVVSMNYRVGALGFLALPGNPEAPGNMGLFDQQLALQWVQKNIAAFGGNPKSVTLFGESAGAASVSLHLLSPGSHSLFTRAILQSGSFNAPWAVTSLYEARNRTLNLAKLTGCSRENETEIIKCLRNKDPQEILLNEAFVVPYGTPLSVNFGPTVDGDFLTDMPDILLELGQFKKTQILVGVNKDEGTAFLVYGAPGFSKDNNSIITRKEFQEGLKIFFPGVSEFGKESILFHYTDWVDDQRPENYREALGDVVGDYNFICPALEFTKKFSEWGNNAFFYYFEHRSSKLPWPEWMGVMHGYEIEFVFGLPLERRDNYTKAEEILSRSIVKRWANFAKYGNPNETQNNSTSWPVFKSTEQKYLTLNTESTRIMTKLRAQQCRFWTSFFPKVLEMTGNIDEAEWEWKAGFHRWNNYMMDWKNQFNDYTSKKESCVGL
Sequence of Histamine H3 receptor (Q9Y5N1 whole entry): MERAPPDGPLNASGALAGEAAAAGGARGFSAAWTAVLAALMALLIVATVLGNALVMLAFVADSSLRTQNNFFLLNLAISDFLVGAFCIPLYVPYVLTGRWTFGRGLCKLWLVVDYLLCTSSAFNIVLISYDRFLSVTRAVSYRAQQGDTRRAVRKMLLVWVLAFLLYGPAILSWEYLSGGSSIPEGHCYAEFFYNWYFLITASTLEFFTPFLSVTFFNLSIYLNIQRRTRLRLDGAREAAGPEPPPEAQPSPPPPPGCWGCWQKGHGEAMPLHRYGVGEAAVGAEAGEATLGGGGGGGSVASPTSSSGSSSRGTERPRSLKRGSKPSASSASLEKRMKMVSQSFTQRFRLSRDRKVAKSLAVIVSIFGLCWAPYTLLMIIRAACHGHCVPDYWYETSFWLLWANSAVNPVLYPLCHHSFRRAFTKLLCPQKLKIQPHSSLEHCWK
Sequence of Histamine H1 receptor (Homo sapiens) (P35367 whole entry): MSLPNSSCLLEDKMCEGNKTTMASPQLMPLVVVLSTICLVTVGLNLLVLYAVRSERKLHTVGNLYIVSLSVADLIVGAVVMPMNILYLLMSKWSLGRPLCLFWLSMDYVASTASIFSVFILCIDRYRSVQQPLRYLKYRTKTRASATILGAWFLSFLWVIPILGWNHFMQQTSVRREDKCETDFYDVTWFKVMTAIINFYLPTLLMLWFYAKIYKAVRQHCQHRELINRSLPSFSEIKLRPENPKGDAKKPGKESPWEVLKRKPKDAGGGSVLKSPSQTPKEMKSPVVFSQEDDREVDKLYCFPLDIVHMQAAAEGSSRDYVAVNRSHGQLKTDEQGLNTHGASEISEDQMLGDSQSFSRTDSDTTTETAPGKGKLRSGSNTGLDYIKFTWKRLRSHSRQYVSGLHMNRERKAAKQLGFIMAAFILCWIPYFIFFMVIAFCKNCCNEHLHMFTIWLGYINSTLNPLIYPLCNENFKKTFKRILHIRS
Sequence of Histamine H4 receptor (Q9H3N8 whole entry): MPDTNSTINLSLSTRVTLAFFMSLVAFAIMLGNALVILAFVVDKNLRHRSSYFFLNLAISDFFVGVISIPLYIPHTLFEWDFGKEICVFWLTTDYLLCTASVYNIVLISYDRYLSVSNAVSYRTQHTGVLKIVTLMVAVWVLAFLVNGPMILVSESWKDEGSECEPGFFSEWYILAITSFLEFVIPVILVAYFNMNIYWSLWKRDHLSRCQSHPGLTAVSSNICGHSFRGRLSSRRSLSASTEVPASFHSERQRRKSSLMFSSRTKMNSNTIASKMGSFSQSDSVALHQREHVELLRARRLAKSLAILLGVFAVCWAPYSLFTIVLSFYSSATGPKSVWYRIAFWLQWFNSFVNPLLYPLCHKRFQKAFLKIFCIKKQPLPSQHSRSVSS

As a reminder, the IC50 is the point on the concentration scale where inhibition reaches its midpoint. Broadly, the inhibition is the relative decrease from the control value, in per cent. As for `CCOC(=O)C1=C(C)NC(C)=C(C(=O)OCC)C1c1ccc(OCCN2CCCCCC2)c(Br)c1`, the half-inhibitory concentration (IC50) in data set [1] was 1.5 µM. In data set [2], the inhibition result is “inactive”. Further, the inhibition on Histamine H3 receptor stood at 8%. Also, the Activity in data set [3] came to 3 equiv.
Broadly, the pKi is the negative decadic logarithm of the Ki, by convention in mol/L. Regarding `CCOC(=O)C1=C(C)NC(C)=C(C(=O)OCC)C1c1ccc(OCCCN2CCCCC2)c(OCC)c1`, the inhibition entry in data set [2] is “inactive”. On Histamine H3 receptor, this molecule showed a pKi of 5.79. The Activity in data set [3] amounted to 2.4 equiv.
As to `CCOC(=O)C1=C(C)NC(C)=C(C(=O)OCC)C1c1ccc(OCCCN2CCCCC2)c(OC)c1`, in data set [2], the inhibition entry was “inactive”. This molecule showed an inhibition on Histamine H3 receptor of 20%. The Activity in [3] was 2.3 equiv.
As for `COC(=O)C1=C(C)NC(C)=C(C(=O)OC)C1c1ccccc1[N+](=O)[O-]` [NIFEDIPINE], the Activity came to 81% in the data set on Aorta [4] (Aorta), 12% in the data set with Aorta [5] (Aorta) and 37% in the data set on Aorta [6] (Aorta).
As to `COc1cc2c(cc1OC)C(=O)C(CC1CCN(Cc3ccccc3)CC1)C2` (stereo not given), the outcome with Mus musculus [7] was Active.
For the molecule `CCOC(=O)C1=C(C)NC(C)=C(C(=O)OCC)C1c1ccc(OCCCN2CCCC2)c(OC)c1`, in data set [2], the inhibition entry is “inactive”. The inhibition on Histamine H3 receptor was determined as 23%. The Activity in [3] is 2.3 equiv.
Turning to `CCOC(=O)C1=C(C)NC(C)=C(C(=O)OCC)C1c1ccc(OCCCN2CCCC2)c(OCC)c1`, in data set [2], the inhibition entry was “inactive”. Moreover, the inhibition on Histamine H3 receptor was found to be 19%. Also, the Activity in data set [3] came to 2.8 equiv.
For `CCOC(=O)C1=C(C)NC(C)=C(C(=O)OCC)C1c1ccc(OCCCN2CCCC2)cc1`, in [2], the inhibition result is “inactive”. Besides, the negative logarithm of the Ki (pKi) on Histamine H3 receptor was 7.08. In data set [3], the Activity is 3.5 equiv.
Consider `CCOC(=O)C1=C(C)NC(C)=C(C(=O)OCC)C1c1ccc(OCCN2CCCCC2)c(Br)c1`, for which, in data set [1], the half-inhibitory concentration (IC50) was determined as 2.8 µM. Further, the inhibition result in data set [2] was “inactive”. On Histamine H3 receptor, this molecule returned an inhibition of 37%. Moreover, the Activity in [3] came out at 2.2 equiv.
A word on the pIC50: it is the negative decadic logarithm of the IC50, by convention in mol/L. For the molecule `CCOC(=O)C1=C(C)NC(C)=C(C(=O)OCC)C1c1ccc(OCCCCN2CCCC2)cc1`, in [2], the inhibition entry was “inactive”. The molecule also gave a pIC50 against Cholinesterase of 5.14. The molecule also had a pKi at Histamine H3 receptor of 7.22. In data set [3], the Activity was determined as 3.3 equiv.
As for `COc1cc(/C=C/C(=O)O)ccc1O`, the Activity in [3] came out at 3.7 equiv.
For `CCOC(=O)C1=C(C)NC(C)=C(C(=O)OCC)C1c1ccc(OCCCCN2CCCCC2)cc1`, the inhibition result in data set [2] was “inactive”. This molecule also gave an inhibition at Histamine H3 receptor of 49%. For the same molecule, the Activity in [3] is 2.2 equiv.
As a reminder, the Papp is a coefficient for how fast a substance crosses the barrier. For `CCOC(=O)C1=C(C)NC(C)=C(C(=O)OCC)C1c1ccc(OCCCCCN2CCCCC2)cc1`, the Activity with Aorta [4] is 5%; in the data set on Aorta [5] it was “Non-Toxic”; in the data set with SH-SY5Y [11], 17%; with SH-SY5Y [12], 49.9%; in the data set on SH-SY5Y [13], 20.9%; with SH-SY5Y [14] it was 64.8%. Besides, the Activity in data set [3] was 3.6 equiv; in the data set on Aorta [6] it was “Non-Toxic”; in the data set on SH-SY5Y [15] it was 35.1%; in the data set on SH-SY5Y [17], 41.8%. Further, the result in the data set with Mus musculus [8] was Active. Moreover, the inhibition entry in [9] and in data set [2] was “inactive” in each case. The results for the pIC50 at Histamine H4 receptor and at Cholinesterase were 5.85 and 5.11, respectively. Besides, the outcome in the data set on SH-SY5Y [10] and in the data set on SH-SY5Y [16] was inactive. On Histamine H3 receptor, the pKi is 6.25. The molecule further showed a Papp at 100 µM in [18] of 8.6 ×10⁻⁶ cm/s.
For the molecule `CCOC(=O)C1=C(C)NC(C)=C(C(=O)OCC)C1c1ccc(OCCN2CCCCCC2)c(Cl)c1`, the IC50 in data set [1] is 4 µM. The inhibition result in data set [2] was “inactive”. Besides, the inhibition at Histamine H3 receptor turned out to be 19%. Moreover, the Activity in data set [3] is 2.4 equiv.
Take `CCOC(=O)C1=C(C)NC(C)=C(C(=O)OCC)C1c1ccc(OCCN2CCCCC2)c(OC)c1`: in data set [1], the IC50 turned out to be 26 µM. In addition, the inhibition result in data set [2] is “inactive”. In addition, the inhibition at Histamine H3 receptor was less than 5%. Besides, in [3], the Activity turned out to be 3.9 equiv.
As for `CCOC(=O)C1=C(C)NC(C)=C(C(=O)OCC)C1c1ccc(OCCN2CCCCC2)cc1`, the inhibition entry in data set [2] is “inactive”. At Histamine H3 receptor, the inhibition was determined as 18%. For the same molecule, in [3], the Activity is 2.4 equiv.
As to `CCOC(=O)C1=C(C)NC(C)=C(C(=O)OCC)C1c1ccc(OCCN2CCCCC2)c(Cl)c1`, the IC50 in data set [1] worked out at 2.9 µM. The inhibition entry in data set [2] is “inactive”. The inhibition at Histamine H3 receptor is 17%. Moreover, the Activity in data set [3] was determined as 2.5 equiv.
With `COc1ccc2[nH]cc(CCNC(C)=O)c2c1` [MELATONIN], the Activity in the data set with SH-SY5Y [10] amounted to 76%; in the data set with SH-SY5Y [11] it was 58.2%.
On to `CCOC(=O)C1=C(C)NC(C)=C(C(=O)OCC)C1c1ccc(OCCCN2CCCCC2)cc1`, for which the inhibition entry in [2] is “inactive”. At Histamine H3 receptor, this molecule gave a negative logarithm of the Ki (pKi) of 7.40. For the same molecule, in data set [3], the Activity turned out to be 2.3 equiv.
On to `CCOC(=O)C1=C(C)NC(C)=C(C(=O)OCC)C1c1ccc(OCCCCCN2CCCC2)cc1`, for which the result in the data set with Mus musculus [8] was inactive. The inhibition result (in [9]; at Histamine H4 receptor; in [2]) was “inactive” each time. The Activity in the data set with SH-SY5Y [10] was found to be 7.21%; in the data set on SH-SY5Y [11], 35.5%; with SH-SY5Y [12], 35.4%; in the data set on SH-SY5Y [13], 16%; in the data set with SH-SY5Y [14] it was 52.8%; in data set [3] it was 2.8 equiv. The Activity came to 48.9% in the data set with SH-SY5Y [15], 8.81% with SH-SY5Y [16] and 18.5% in the data set with SH-SY5Y [17]. This molecule also showed a negative-log IC50 (pIC50) against Cholinesterase of 5.22. In addition, the negative-log Ki (pKi) at Histamine H3 receptor is 6.37. For the same molecule, the Papp at 100 µM in [18] is 10 ×10⁻⁶ cm/s.
